This assay addresses T1, BRAF (Homo sapiens, UniProt P15056).
T1 construct: purchased Thermo Fisher Scientific (Life Technologies) SelectScreen
Nature of the assay: SelectScreen Z'LYTE. In kind it is biochemical. The conditions noted are these: ATP 100 µM. The gist of the method:
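Compound tested in SelectScreen activity assays, Z'LYTE for CSF1R, CDK1/cyclin B and MAP2K6 and Adapta for CAMK1. ATP for CAMK1 was listed as 10, and Km app was used for CSF1R. Results are expressed in percent.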

T1 sequence (P15056 whole entry): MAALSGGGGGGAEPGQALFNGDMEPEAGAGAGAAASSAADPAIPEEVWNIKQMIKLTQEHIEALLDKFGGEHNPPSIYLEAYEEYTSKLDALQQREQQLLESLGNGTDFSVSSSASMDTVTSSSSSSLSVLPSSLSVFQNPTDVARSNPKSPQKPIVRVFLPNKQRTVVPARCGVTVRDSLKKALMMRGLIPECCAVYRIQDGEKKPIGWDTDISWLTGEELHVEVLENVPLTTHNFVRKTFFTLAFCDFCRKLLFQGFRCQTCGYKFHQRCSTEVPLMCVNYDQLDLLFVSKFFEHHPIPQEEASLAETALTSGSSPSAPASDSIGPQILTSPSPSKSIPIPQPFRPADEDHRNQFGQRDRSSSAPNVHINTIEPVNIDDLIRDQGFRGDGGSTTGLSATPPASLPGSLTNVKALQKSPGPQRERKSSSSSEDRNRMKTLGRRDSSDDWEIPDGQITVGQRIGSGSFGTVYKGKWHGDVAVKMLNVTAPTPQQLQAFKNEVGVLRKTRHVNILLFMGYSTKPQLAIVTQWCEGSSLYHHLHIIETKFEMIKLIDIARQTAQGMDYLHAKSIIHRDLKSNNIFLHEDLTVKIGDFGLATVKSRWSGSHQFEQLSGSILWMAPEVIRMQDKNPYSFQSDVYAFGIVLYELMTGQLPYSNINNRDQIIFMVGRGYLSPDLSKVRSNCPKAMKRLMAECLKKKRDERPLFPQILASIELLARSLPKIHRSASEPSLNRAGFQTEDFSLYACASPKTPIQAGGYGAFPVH

`CN(C(=O)CN1CCOCC1)c1ccc2sc3c(-c4cccc5c(=O)cc(N6CC7CCC(C6)O7)oc45)cccc3c2c1` [NU5455] came in with an inhibition at 1 µM of 9.9%.

For orientation: inhibition means the change of the read-out against control, counted positive when it falls. Low values mean a response near the control, high ones a response far below the control.

These data come from publication PMC6934184, “Selective DNA-PKcs inhibition extends the therapeutic index of localized radiotherapy and chemotherapy” (The Journal of Clinical Investigation, 2019).
